10 molecules from US7037937B2, “Cytotoxic compounds” (Parker Hughes Institute, priority 2001, dated 2006) can be followed below.

The subject of assay [1] is MOLT-3 Lymphoma. The assay can be described thus: MTT assay, antiproliferative activity against MOLT-3. In kind it is cell-based. Conditions: Homo sapiens, 24–36 hours drug exposure, 1.0 to 250 μM. An excerpt: (§1) The following human cancer cell lines were used in the present study: human leukemic cell lines Molt-3 and NALM-6. These cell lines were obtained from American Type Culture Collection (Manassas, Va.) and maintained as continuous cell lines in Dulbecco's modified Eagles's medium supplemented with 10% fetal bovine serum and antibiotics.
(§2) The antiproliferative activity of the COBRA compounds was examined against a panel of 2 different human tumor cell lines using standard MTT (3-[4,5-dimethylthiazol-2-yl]-2,5-diphenyl tetrazolium bromide) assays (Narla, R. K., Liu, X. P., Klis, D. and Uckun, F. M., Clin. Cancer Res., 1998, 4, 2463), (Boehringer Mannheim Corp., Indianapolis, Ind.). Briefly, exponentially growing brain tumor cells were seeded into a 96-well plate at a density of 2.5×10^4 cells/well and incubated for 36 hours at 37° C. prior to drug exposure. On the day of treatment, culture medium was carefully aspirated from the wells and replaced with fresh medium containing the test compounds at concentrations ranging from 1.0 to 250 μM. Triplicate wells were used for each treatment. The cells were incubated with the various compounds for 24–36 hours at 37° C. in a humidified 5% CO2 atmosphere. To each well, 10 μl of MTT (0.5 mg/ml final concentration) was added and the plates were incubated at 37° C. for 4 hours to allow MTT to form formazan crystals by reacting with metabolically active cells. The formazan crystals were solubilized overnight at 37° C. in a solution containing 10% SDS in 0.01 M HCl. The absorbence of each well was measured in a microplate reader (Labsystems) at 540 nm and a reference wavelength of 690 nm. To translate the OD 540 values into the number of live cells in each well, the OD 540 values were compared to those on standard OD 540—versus—cell number curves generated for each cell line. The percent survival was calculated using the formula: survival=Live cell number[test]×100/Live cell number [control].
(§3) IC50 values were calculated by non-linear regression analysis using an Graphpad Prism software version 2.0 (Graphpad Software, Inc., San Diego, Calif.).
(Tetrazolium dyes change colour on reduction, which living cells bring about.)

Assay [2] concerns NALM-6 Leukemia. Nature of the assay: MTT assay, antiproliferative activity against NALM-6. The format is cell-based. To be noted: Homo sapiens, 24–36 hours drug exposure, 1.0 to 250 μM.
Text: as §1, §2, §3

As a reminder, the IC50 is the concentration at which inhibition is half-maximal. As for `CCCCCCCCCCCCC(O)c1ccc(C=O)s1` (centres unmarked) [AC-12], the IC50 in assay [1] came to 33 µM; in assay [2] it was 6 µM.

In the case of `CCCCCCCCCCCCC(O)c1cccs1` (centres unmarked) [AC-10], the IC50 was determined as 125 µM in assay [1] and 204 µM in assay [2].

As to `CCCCCCCCCCCCC(O)c1cccc(C)n1` (centres unmarked) [AC-16], the figures for the IC50 in assay [1] and in assay [2] were above 250 µM and 236 µM, respectively.

`CCCCCCCCCCCCC(O)c1ccco1` (centres unmarked) [AC-6]: the IC50 in assay [1] was above 250 µM; in assay [2] it was 229 µM.

As for `CCCCCCCCCCCCC(O)c1[nH]cnc1C` (centres unmarked) [AC-15], the IC50 in assay [1] is 9 µM; in assay [2], 25 µM.

On to `CCCCCCCCCCCCC(O)c1ccc(Br)s1` (centres unmarked) [AC-11], for which the half-maximal inhibitory concentration (IC50) in assay [1] amounted to 2 µM; in assay [2] it was 4 µM.

With `CCCCCCCCCCCCC(O)c1ccc(-c2ccccc2Cl)o1` (centres unmarked) [AC-7], the IC50 in assay [1] and in assay [2] was above 250 µM throughout.

For the molecule `CCCCCCCCCCCCC(O)c1ccccn1` (centres unmarked) [AC-17], the IC50 amounted to 246 µM in assay [1] and 221 µM in assay [2].

Turning to `CCCCCCCCCCCCC(O)c1ncc[nH]1` (centres unmarked) [AC-14], the IC50 in assay [1] was found to be 58 µM; in assay [2], 3 µM.

For `CCCCCCCCCCCCC(O)c1nccs1` (centres unmarked) [AC-13], the results for the IC50 in assay [1] and in assay [2] were 4 µM and above 250 µM, respectively.
